Data taken from patent US11447481B2, “Microbiocidal oxadiazole derivatives” (SYNGENTA PARTICIPATIONS AG, priority 2017, dated 2022).

Columns and labels:
[1] = tested on: Puccinia recondita f. sp. tritici; test: Fungicidal activity against Puccinia recondita f. sp. tritici / wheat / leaf disc preventative (brown rust); assay type: in vivo; settings: foliar, wheat leaf segments, preventative (inoculated 1 day after application), compared to untreated control
Protocol: (§1) Leaf disks or leaf segments of various plant species are cut from plants grown in a greenhouse. The cut leaf disks or segments are placed in multiwell plates (24-well format) onto water agar. The leaf disks are sprayed with a test solution before (preventative) or after (curative) inoculation. Compounds to be tested are prepared as DMSO solutions (max. 10 mg/ml) which are diluted to the appropriate concentration with 0.025% Tween20 just before spraying. The inoculated leaf disks or segments are incubated under defined conditions (temperature, relative humidity, light, etc.) according to the respective test system. A single evaluation of disease level is carried out 3 to 14 days after inoculation, depending on the pathosystem. Percent disease control relative to the untreated check leaf disks or segments is then calculated.
(§2) Wheat leaf segments cv. Kanzler are placed on agar in multiwell plates (24-well format) and sprayed with the formulated test compound diluted in water. The leaf disks are inoculated with a spore suspension of the fungus 1 day after application. The inoculated leaf segments are incubated at 19° C. and 75% rh under a light regime of 12 h light/12 h darkness in a climate cabinet and the activity of a compound is assessed as percent disease control compared to untreated when an appropriate level of disease damage appears in untreated check leaf segments (7-9 days after application).

[2] = tested on: Puccinia recondita f. sp. tritici; test: Fungicidal activity against Puccinia recondita f. sp. tritici / wheat / leaf disc curative (brown rust); assay type: in vivo; settings: foliar, 24 h, wheat leaf segments, curative (applied 1 day after inoculation), compared to untreated control
Protocol: as §1
as §2, with “format).” for “format) and sprayed with the formulated test compound diluted in water.”, “segments” for “disks”, “fungus. Plates are stored in darkness at 19° C. and 75% rh. The formulated test compound diluted in water is applied” for “fungus”, “inoculation.” for “application.”, “The” for “The inoculated”, “(6-8” for “(7-9”

Phakopsora pachyrhizi = test: Fungicidal activity against Phakopsora pachyrhizi / soybean / leaf disc preventative (Asian soybean rust); assay type: in vivo; settings: foliar, soybean leaf disks, compared to untreated control
Protocol: as §1
Soybean leaf disks are placed on water agar in multiwell plates (24-well format) and sprayed with the formulated test compound diluted in water. One day after application leaf discs are inoculated by spraying a spore suspension on the lower leaf surface. After an incubation period in a climate cabinet of 24-36 hours in darkness at 20° C. and 75% rh leaf disc are kept at 20° C. with 12 h light/day and 75% rh. The activity of a compound is assessed as percent disease control compared to untreated when an appropriate level of disease damage appears in untreated check leaf disks (12-14 days after application).

[3] = tested on: Glomerella lagenarium (Colletotrichum lagenarium); test: Fungicidal activity against Glomerella lagenarium (Colletotrichum lagenarium) liquid culture / cucumber / preventative (anthracnose); assay type: cell-based; settings: Colletotrichum orbiculare, liquid culture (PDB), growth inhibition measured photometrically 3-4 days after application, compared to untreated control
Protocol: Mycelia fragments or conidia suspensions of a fungus prepared either freshly from liquid cultures of the fungus or from cryogenic storage, are directly mixed into nutrient broth. DMSO solutions of the test compound (max. 10 mg/ml) are diluted with 0.025% Tween20 by a factor of 50 and 10 µl of this solution is pipetted into a microtiter plate (96-well format). The nutrient broth containing the fungal spores/mycelia fragments is then added to give an end concentration of the tested compound. The test plates are incubated in the dark at 24° C. and 96% relative humidity. The inhibition of fungal growth is determined photometrically after 2 to 7 days, depending on the pathosystem, and percent antifungal activity relative to the untreated check is calculated.
Conidia of the fungus from cryogenic storage are directly mixed into nutrient broth (PDB potato dextrose broth). After placing a (DMSO) solution of test compound into a microtiter plate (96-well format), the nutrient broth containing the fungal spores is added. The test plates are incubated at 24° C. and the inhibition of growth is measured photometrically 3-4 days after application.

Row | Compound | melting point [°C] | pest or weed control at 200 ppm [1] [%] | pest or weed control at 200 ppm [2] [%] | pest or weed control at 200 ppm (Phakopsora pachyrhizi) [%] | inhibition of growth at 20 ppm [3] [%]
1 | Cc1ccn(Cc2ccc(-c3noc(C(F)(F)F)n3)cc2)c(=O)c1 [Compound C-5, 4-methyl-1-[[4-[5-(trifluoromethyl)-1,2,4-oxadiazol-3-yl]phenyl]methyl]pyridin-2-one] | 156 to 158 | ≥ 80 | ≥ 80 | ≥ 80 | ≥ 80
2 | O=c1ccc(F)cn1Cc1ccc(-c2noc(C(F)(F)F)n2)cc1 [Compound C-6, 5-fluoro-1-[[4-[5-(trifluoromethyl)-1,2,4-oxadiazol-3-yl]phenyl]methyl]pyridin-2-one] | 125 to 126 | ≥ 80 | ≥ 80 | ≥ 80 | ≥ 80
3 | N#Cc1cccn(Cc2ccc(-c3noc(C(F)(F)F)n3)cc2)c1=O [Compound C-7, 2-oxo-1-[[4-[5-(trifluoromethyly)-1,2,4-oxadiazol-3-yl]phenyl]methyl]pyridine-3-carbonitrile] | 178 to 180 | ≥ 80 | ≥ 80 | ≥ 80 | ≥ 80
4 | Cc1cccn(Cc2ccc(-c3noc(C(F)(F)F)n3)cc2)c1=O [Compound C-8, 3-methyl-1-[[4-[5-(trifluoromethyl)-1,2,4-oxadiazol-3-yl]phenyl]methyl]pyridin-2-one] | 115 to 117 | ≥ 80 | ≥ 80 | ≥ 80 | ≥ 80
5 | O=c1ccc(C(F)(F)F)cn1Cc1ccc(-c2noc(C(F)(F)F)n2)cc1 [Compound C-9, 5-(trifluoromethyl)-1-[[4-[5-(trifluoromethyl)-1,2,4-oxadiazol-3-yl]phenyl]methyl]pyridin-2-one] | 131 to 133 | ≥ 80 | ≥ 80 | ≥ 80 | ≥ 80
6 | Cc1ccc(=O)n(Cc2ccc(-c3noc(C(F)(F)F)n3)cc2)c1 [Compound C-10, 5-methyl-1-[[4-[5-(trifluoromethyl)-1,2,4-oxadiazol-3-yl]phenyl]methyl]pyridin-2-one] | 174 to 176 | ≥ 80 | ≥ 80 | ≥ 80 | ≥ 80
7 | N#Cc1ccc(=O)n(Cc2ccc(-c3noc(C(F)(F)F)n3)c(F)c2F)c1 [Compound C-11, 1-[[2,3-difluoro-4-[5-(trifluoromethyl)-1,2,4-oxadiazol-3-yl]phenyl]methyl]-6-oxo-pyridine-3-carbonitrile] | 144 to 146 | ≥ 80 | ≥ 80 | ≥ 80 | ≥ 80

More lines, main results first:

Row | melting point [°C] | Compound | pest or weed control at 200 ppm [1] [%] | pest or weed control at 200 ppm [2] [%] | pest or weed control at 200 ppm (Phakopsora pachyrhizi) [%] | inhibition of growth at 20 ppm [3] [%]
8 | 154 to 156 | O=c1ccccn1Cc1ccc(-c2noc(C(F)(F)F)n2)c(F)c1F [Compound C-12, 1-[[2,3-difluoro-4-[5-(trifluoromethyl)-1,2,4-oxadiazol-3-yl]phenyl]methyl]pyridin-2-one] | ≥ 80 | ≥ 80 | ≥ 80 | ≥ 80
9 | 174 to 176 | N#Cc1ccc(=O)n(Cc2ccc(-c3noc(C(F)(F)F)n3)cc2)c1 [Compound C-13, 6-oxo-1-[[4-[5-(trifluoromethylyl)-1,2,4-oxadiazol-3-yl]phenyl]methyl]pyridine-3-carbonitrile] | ≥ 80 | ≥ 80 | ≥ 80 | ≥ 80
10 | 142 to 144 | O=c1ccccn1Cc1ccc(-c2noc(C(F)(F)F)n2)cc1 [Compound C-14, 1-[[4-[5-(trifluoromethyl)-1,2,4-oxadiazol-3-yl]phenyl]methyl]pyridin-2-one] | ≥ 80 | ≥ 80 | ≥ 80 | ≥ 80
11 | 92 to 94 | Cn1nnn(CCc2ccc(-c3noc(C(F)(F)F)n3)cc2)c1=O [Compound D-1, 1-methyl-4-[2-[4-[5-(trifluoromethyl)-1,2,4-oxadiazol-3-yl]phenyl]ethyl]tetrazol-5-one] | ≥ 80 | ≥ 80 | ≥ 80 | ≥ 80
